Legend:
P-388 leukemia [1] = experiment: Antitumour activity, Test Example 1 (intraperitoneally transplanted--intraperitoneally administered); format: in vivo, BDF1 mouse; conditions: i.p., days 1 and 8, mortality observed 30 days, saline control = 0%; for ILS at 50 mg/kg: 50 mg/kg/day active ingredient; for ILS at 100 mg/kg: 100 mg/kg/day active ingredient; for ILS at 6.25 mg/kg: 6.25 mg/kg/day active ingredient
Experimental: 1×10^6 of P-388 leukemia cells per mouse were intraperitoneally transplanted into BDF1 mouse. […] The increase life span of each group was determined on such basis that the medium survival time of a control group to which physiological saline was administered was regarded to be 0% of increase life span (ILS). […] | (Note) *Increase life span is calculated by the following equation: | Increase life span % (ILS) =- | [drawing 18]

[2] = Solubility to a non-aqueous solvent, Test Example 3; format: physicochemical; conditions: 18° to 20° C.; for Solubility, Medium chain triglyceride: medium chain triglyceride (ODO)
Experimental: A stirring magnet was put into a 10 ml or 100 ml egg plant flask equipped with a stopper, and 50 mg of a test compound was introduced into this flask. Further, a suitable amount of a desired solvent was introduced thereinto, and the solubility was determined.

P-388 leukemia [3] = experiment: Antitumour activity, Test Example 2 (intraperitoneally transplanted--intravenously injected); format: in vivo, BDF1 mouse; conditions: 10 mg/kg (active ingredient mg/kg/day), i.v. from the tail, days 1 and 8; fatty emulsion (Formulation Example 10); saline control = 0%
Experimental: 1×10^6 of P-388 leukemia cells per mouse were intraperitoneally transplanted to BDF1 mouse. Each formulation (formulated in accordance with the below-mentioned Formulation Example 10) was intravenously injected from the tail on days 1 and 8 after the transplantation.
The increase life span (ILS, %) of each treated group was determined on such basis that the median survival time of a control group to which a physiolosical saline was administered was regarded to be 0% of increase life span (ILS). In the cases where Compounds No. 1 and No. 11 were administered at a dose (active ingredient mg/kg/day) of 10 mg/kg, ILS (%) was 46 and 27, respectively. (Note) * The increase life span was calculated in the
same manner as in Test Example 1.

[4] = Mus musculus, P388, ip, 720 h, 12.5 mg/kg/day active ingredient, read-out: Increase life span (ILS)
[5] = Mus musculus, P388, ip, 720 h, 25 mg/kg/day active ingredient, read-out: Increase life span (ILS)
[6] = Mus musculus, P388, ip, 720 h, read-out: Increase life span (ILS)
[7] = 12.5 mg/kg/day active ingredient

| Structure (SMILES) | ILS at 12.5 mg/kg (P-388 leukemia [1]; [4]) | ILS at 25 mg/kg (P-388 leukemia [1]; [5]) | ILS at 50 mg/kg (P-388 leukemia [1]; [6]) | other results |
| --- | --- | --- | --- | --- |
| CN(C)c1ccccc1C(=O)NC(=O)Nc1ccc(Oc2ncc(Br)cn2)c(C(F)(F)F)c1 [Compound 9, N-[4-(5-bromo-pyrimidinyloxy)-3-trifluoromethylphenyl]-N'-[2(dimethylamino)benzoyl]urea] | 80% |  |  |  |
| Cc1cc(NC(=O)NC(=O)c2ccccc2N)ccc1Oc1ncc(Br)cn1 [Compound 27, N-(2-aminobenzoyl)-N'-[4-(5-bromo-2-pyrimidinyloxy)-3-methylphenyl]urea] | 126% | 160% |  |  |
| CN(C)c1ccccc1C(=O)NC(=O)Nc1ccc(Oc2ncc(Br)cn2)c([N+](=O)[O-])c1 [Compound 13] |  |  | 27% |  |
| Cc1cc(NC(=O)NC(=O)c2c(F)cccc2N(C)C)ccc1Oc1ncc(Br)cn1 [Compound 3] | 50% | 150% |  |  |
| Nc1ccccc1C(=O)NC(=O)Nc1ccc(Oc2ncc(Br)cn2)c(Cl)c1 [Compound 26, N-(2-aminobenzoyl)-N'-[4-(5-bromo-2-pyrimidinyloxy)-3-chlorophenyl]urea] | 93% | > 137% |  |  |
| Cc1cc(NC(=O)NC(=O)c2ccccc2N(C)C)ccc1Oc1ncc(Cl)cn1 [Compound 11, N-[4-(5-chloro-2-pyrimidinyloxy)-3methylphenyl]-N'-[2-(dimethylamino)benzoyl]urea] |  | 99% | 132% | Solubility, Medium chain triglyceride [2]: 1.5-1.8%; Solubility, Soybean oil [2]: 0.15-0.16%; Increase life span (ILS) (P-388 leukemia [3]): 27% |
| CN(C)c1ccccc1C(=O)NC(=O)Nc1ccc(Oc2ncc(Cl)cn2)c([N+](=O)[O-])c1 [Compound 36] |  |  |  | ILS at 100 mg/kg (P-388 leukemia [1]; [6]): 68% |
| COc1cc(NC(=O)NC(=O)c2ccccc2N(C)C)ccc1Oc1ncc(Cl)cn1 [Compound 35] |  |  |  | ILS at 100 mg/kg (P-388 leukemia [1]; [6]): 27%; ILS at 200 mg/kg (P-388 leukemia [1]; Mus musculus, P388, ip, 720 h, 200 mg/kg/day active ingredient, read-out: Increase life span (ILS)): 53% |
| CCN(CC)c1ccccc1C(=O)NC(=O)Nc1ccc(Oc2ncc(Br)cn2)c(C)c1 [Compound 33] |  | 49% |  | Solubility, Soybean oil [2]: at least 13.6% |
| Cc1cc(NC(=O)NC(=O)c2ccccc2N2CCOCC2)ccc1Oc1ncc(Br)cn1 [Compound 34, N-[4-(5-bromo-2-pyrimidinyloxy)-3-methylphenyl]-N'-(2-morpholinobenzoyl)urea] |  |  |  | ILS at 6.25 mg/kg (P-388 leukemia [1]; [6]): 49% |
| CN(C)c1cccc(F)c1C(=O)NC(=O)Nc1ccc(Oc2ncc(Br)cn2)c(Cl)c1 [Compound 4] |  |  | 135% |  |
| CC(=O)Nc1ccccc1C(=O)NC(=O)Nc1ccc(Oc2ncc(Br)cn2)c(C)c1 [Compound 49, N-[2-(acetylamino]benzoyl]-N'-[4-(5-bromo-2-pyrimidinyloxy)-3-methylphenyl]urea] | 39% | 59% |  |  |
| CN(C)c1ccccc1C(=O)NC(=O)Nc1ccc(Oc2ncc(Cl)cn2)c(C(F)(F)F)c1 [Compound 10, N-[4-(5-chloro-2-pyrimidinyloxy)-3-trifluoromethylphenyl]-N'-[2-(dimethylamino)benzoyl]urea] | 39% |  |  |  |
| CCCCCCCCC(=O)Nc1ccccc1C(=O)NC(=O)Nc1ccc(Oc2ncc(Br)cn2)c(C)c1 [Compound 51] |  |  | 184% |  |
| Cc1cc(NC(=O)NC(=O)c2ccccc2N(C)C)ccc1Oc1ncc(Br)cn1 [Compound 1, N-[4-(5-bromo-2-pyrimidinyloxy)-3methylphenyl]-N'-[2-(dimethylamino)benzoyl]urea] |  |  |  | Increase life span (ILS) (P-388 leukemia [1]; [7]): 126%; Increase life span (ILS) (P-388 leukemia [1]; 25 mg/kg/day active ingredient): 183%; Solubility, Medium chain triglyceride [2]: 2.1-2.3%; Solubility, Soybean oil [2]: 0.46-0.49%; Increase life span (ILS) (P-388 leukemia [3]): 46% |
| Cc1cc(NC(=O)NC(=O)c2ccccc2N(S(C)(=O)=O)S(C)(=O)=O)ccc1Oc1ncc(Br)cn1 [Compound 54] |  |  | 49% |  |
| CC(=O)N(C)c1ccccc1C(=O)NC(=O)Nc1ccc(Oc2ncc(Br)cn2)c(C)c1 [Compound 52] | 139% |  |  | ILS at 6.25 mg/kg (P-388 leukemia [1]; [6]): 39% |
| CCCC(=O)Nc1ccccc1C(=O)NC(=O)Nc1ccc(Oc2ncc(Br)cn2)c(C)c1 [Compound 50] |  | 49% | 150% |  |
| Cc1cc(NC(=O)NC(=O)c2ccccc2N(C)C)ccc1Oc1ncc(Br)cn1.Cl [Compound 2, N-[4-(5-bromo-2-pyrimidinyloxy)-3methylphenyl]-N'-[2-(dimethylamino)benzoyl]urea hydrochloride] |  |  |  | Increase life span (ILS) (P-388 leukemia [1]; [7]): 94%; Increase life span (ILS) (P-388 leukemia [1]; 25 mg/kg/day active ingredient): 206% |
